Assay [1] concerns ApoE KO mice fed a Western diet. Briefly: Plasma and liver sphingomyelin by LC/MS, 4 weeks. The class given is in vivo. How it is done:
Animal experiments—Male C57BI/6J and ApoE KO mice on C57BI/6J background were obtained from the Jackson Laboratory (Bar Harbor, Me.) or Taconic (Germantown, N.Y.) (Plaque formation in ApoE KO mice is lipid-driven (A. S. Plump et al., Cell. 1992;71 (2):343-53)). Myriocin was mixed with Western diet containing 0.21% cholesterol and 21% fat. 8-12-week-old mice received 0.3 mg myriocin/kg/day for 12 weeks (Table 1). 10-12 week-old ApoE KO mice (n=8) were pre-fed a western diet for 2 weeks and mice received various concentrations of myriocin for 4 weeks in diet admix. Control groups consisted of ApoE KO mice fed normal chow or Western diet without myriocin, and normal chow-fed C57BI/6J mice. Body weight and chow feeding was measured every week to examine the food consumption. For the femoral artery cuff model, 8-10 week-old male ApoE KO mice were anethetized and the right femoral artery was dissected from its surroundings. […]
Analysis of Sphingolipids and Phospholipids by LC/MS and HPLC—Total lipids were extracted by the modified method of Bligh-Dyer extraction (E. G. Bligh and W. J. Dyer, Can. J. Med. Sci. 1959;37:911-917; and D. K. Perry, A. Bielawska and Y. A. Hannun, Methods Enzymol. 2000;312:22-31). A Micromass (Waters Corp., Milford, Mass.) Quattro Ultima tandem quadrupole mass spectrometer with a standard Z-spray™ ion source, set to electrospray positive ionization mode, with MassLynx™ version 3.5 operating software, was used for all quantitative determinations. […] The following ion transitions were used for quantification: sphingomyelin (704→184 m/z), sphinganine (302→284 m/z), ceramide (566→264 m/z) and psychosine (462→282 m/z) as an internal standard. […]
The liquid chromatography system was composed of twin Shimadzu (Columbia, Md.) LC-10ADvp HPLC pumps with a SCL-10Avp controller (flow rate 0.2 mL/minute), and a LEAP Technologies (Carrboro, N.C.) CTC PAL autosampler. For the quantitative method, the analytical column was a Phenomenex (Torrance, Calif.) Polar-RP (2.0×150 mm, 4 μm) with a MetaChem (Torrance, Calif.) MetaGuard Polaris C8 2.0 mm direct connect (5 μm) guard column. […]

The subject of a further assay is ApoE knockout mice. The assay can be described thus: Plasma sphingomyelin and phosphatidylcholine by HPLC, 4 weeks (Table 2). The class given is in vivo. The settings on record: for PC in plasma / SM in plasma / SM; PC molar ratio: diet admix 4 weeks, n = 10. How it is done:
Animal experiments—Male C57BI/6J and ApoE KO mice on C57BI/6J background were obtained from the Jackson Laboratory (Bar Harbor, Me.) or Taconic (Germantown, N.Y.) (Plaque formation in ApoE KO mice is lipid-driven (A. S. Plump et al., Cell. 1992;71 (2):343-53)). Myriocin was mixed with Western diet containing 0.21% cholesterol and 21% fat. 8-12-week-old mice received 0.3 mg myriocin/kg/day for 12 weeks (Table 1). […] Control groups consisted of ApoE KO mice fed normal chow or Western diet without myriocin, and normal chow-fed C57BI/6J mice. Body weight and chow feeding was measured every week to examine the food consumption. For the femoral artery cuff model, 8-10 week-old male ApoE KO mice were anethetized and the right femoral artery was dissected from its surroundings. A nonconstrictive polyethylene cuff (Portex, 0.40-mm inner diameter, 0.80-mm outer diameter, and 1.5-mm length) was placed looselyaround the right femoral artery.
The liquid chromatography system was composed of twin Shimadzu (Columbia, Md.) LC-10ADvp HPLC pumps with a SCL-10Avp controller (flow rate 0.2 mL/minute), and a LEAP Technologies (Carrboro, N.C.) CTC PAL autosampler. For the quantitative method, the analytical column was a Phenomenex (Torrance, Calif.) Polar-RP (2.0×150 mm, 4 μm) with a MetaChem (Torrance, Calif.) MetaGuard Polaris C8 2.0 mm direct connect (5 μm) guard column. Mobile phase A consisted of water/acetonitrile/formic acid (60/40/0.1) and mobile phase B was propanol. The HPLC pumps were programmed with a gradient for each injection to deliver 98% mobile phase A (0-1 minute), 30% mobile phase A (1-2 minutes), 30% mobile phase A (2-4 minutes), and 98% mobile phase A (4-4.5 minutes). A sample volume of 2 μL was injected into the LC/MS/MS system. Final chromatographic retention times for sphingomyelin, sphinganine, psychosine (internal standard) and ceramide were 4.84 minutes, 5.43 minutes, 4.92 minutes and 5.31 , minutes, respectively. Lipid extracts were analyzed by HPLC and evaporative light scattering detector to determine plasma sphingomyelin and phosphatidylcholine (PC) levels (R. Homan and M.K. Anderson, J. Chromatogr. B. Biomed. Sci. Appl. 1998;708:21-6).
To investigate whether myriocin was effective in lowering sphingomyelin biosynthesis, various concentrations of myriocin were administered to ApoE KO mice for 4 weeks and plasma SM levels were examined. […] At the highest dose of myriocin (1 mg/kg/day), plasma sphingomyelin levels were reduced by 70% when compared with no-myriocin control. Thus, myriocin in a diet admix was effective in inhibiting sphingomyelin biosynthesis and lowering plasma sphingomyelin levels. Since SM levels relative to phospholipids has been regarded as a risk factor for coronary artery disease, plasma PC levels were determined by HPLC analysis. Although there were significant changes in plasma SM levels, plasma PC levels were not changed to the same extent by myriocin. Consequently, SM/PC molar ratio was lowered by myriocin in a dose-dependent manner (Table 2).

Marks after values point to notes of the source that are not given here.

Regarding `CCCCCCC(=O)CCCCCC/C=C/C[C@@H](O)[C@H](O)[C@@](N)(CO)C(=O)O` [myriocin], in assay [1] (0.1 mg/kg/day), the “liver SM levels decreased, maximum” value is listed as 46%. Moreover, in assay [1] (1 mg/kg/day), the “liver SM levels” value is on record as “comparable to the non-treated group” and the “plasma SM levels lowered (LC/MS)” value stood at 70%. Also, in the assay with ApoE knockout mice (1 mg/kg/day, 4 weeks, vs no-myriocin control), the “plasma sphingomyelin levels reduced (HPLC)” value was 70%. Further, in the assay with ApoE knockout mice (WD + 0.1 mg myr), the PC in plasma came out at 2.763 ± 0.195 nmol/mL, the SM in plasma is 0.379 ± 0.035 nmol/mL and the “SM; PC molar ratio” value is on record as 0.137 ± 0.005^b. For the same compound, in the assay with ApoE knockout mice (WD + 0.3 mg myr), the PC in plasma is 1.999 ± 0.085 nmol/mL, the SM in plasma stood at 0.243 ± 0.032 nmol/mL and the “SM; PC molar ratio” value is 0.122 ± 0.013^b. In addition, in the assay on ApoE knockout mice (WD + 1 mg myr), the PC in plasma amounted to 2.044 ± 0.146 nmol/mL, the SM in plasma was 0.175 ± 0.013 nmol/mL and the “SM; PC molar ratio” value is 0.086 ± 0.008^b.

Source of the values: patent US20080027088A1, “Imidazole-Based Hmg-Coa Reductase Inhibitors” (Warner-Lambert Company, LLC, priority 2004, published 2008).
